{
  "source": "patent US20210393724A1",
  "about": "“MEDICINE FOR TREATMENT OF PSORIASIS AND PRODUCTION METHOD THEREOF” (YEDITEPE UNIVERSITESI, priority 2018, published 2021)",
  "test_system": "IMQ-induced psoriasis inflammation",
  "experiment": "IMQ-induced psoriasis mouse model: PASI scoring, ear thickness, spleen/body weight",
  "format": "in vivo, BALB/c mice",
  "settings": "MTX 1 mg/kg orally per day",
  "protocol": "The cream named Aldara (Meda Pharma, 3M Health Care) containing 5% Imiquimib (IMQ) was administered once a day for 6 days on the shaved backs and right ears of 8-11 weeks old adult male BALB/c mice such that a total of 62.5 mg cream is applied per day per animal thereby psoriasis inflammation was produced in the animal model. Vaseline was applied to the shaved area of the animals in the control group. The positive control group received 1 mg/kg Mtx (Methotrexate) orally per day. The drug was administered orally at a dose of 5 mg/kg once a day during the experiment. Administration of the drug to the animals in the group where the semi-therapeutic effect of the drug was to be tested was initiated 1 day after the onset of induction of psoriasis with IMQ, and continued until the end of the experiment period. Body weight, and redness, flaking and thickening on the skin were daily measured and scored according to the Psoriasis Area Severity. Index (PASI) to monitor the general health status of the animals and the induction of psoriasis with IMQ. As required by the model, thickening of the right ear skin was also recorded on a regular basis since the day the experiments began. At the end of the application, animals were anesthetized by isoflurane and then euthanized by cervical dislocation. The size and weight of the spleen tissues were recorded.",
  "data": [
    {"smiles": "CN(Cc1cnc2nc(N)nc(N)c2n1)c1ccc(C(=O)N[C@@H](CCC(=O)O)C(=O)O)cc1", "note": "[MTX, Methotrexate]", "values": [
      {"measurement": "plaque formation (scaling) PASI score of IMQ-administered region on the back", "setting": "as of the 4th day", "result": "decreased"},
      {"measurement": "total PASI score", "setting": "as of the 4th day", "result": "Decrease"},
      {"measurement": "thickness PASI score of IMQ-administered region on the back", "setting": "as of the 5th day", "result": "decreased"}
    ]}
  ]
}
